Laboratory results: US20160297820A1, “DIMERIZER COMPOUND” (AGENCY FOR SCIENCE, TECHNOLOGY AND RESEARCH, priority 2013, published 2016)
Where a chain is given by its changes, count along the chain named.

How the values were obtained:
SNAP-eGFP and CLIP-eGFP = biological target: T1, SNAP-eGFP and CLIP-eGFP (Homo sapiens, UniProt P16455, A121V/A127T/A154D/C150Q/C62A/E30R/G131K/G131N/G132T/G153L/G153S/K125A/K32I/L33F/M134L/M60I/N157G/N157P/Q115S/Q116H/R128A/R135D/R135S/S151G/S152D/S159E/S159L/Y114E); experiment: Dimerization of SNAP-eGFP and CLIP-eGFP in transfected HEK293 cells, western blot against eGFP; format: cell-based
T1 construct: host or cells: HEK293
T1 sequence (P16455 1-182 E30R/K32I/L33F/C62A/Q115S/Q116H/K125A/A127T/R128A/G131K/G132T/M134L/R135S/C150Q/S151G/S152D/G153L/A154D/N157G/S159E limits assumed): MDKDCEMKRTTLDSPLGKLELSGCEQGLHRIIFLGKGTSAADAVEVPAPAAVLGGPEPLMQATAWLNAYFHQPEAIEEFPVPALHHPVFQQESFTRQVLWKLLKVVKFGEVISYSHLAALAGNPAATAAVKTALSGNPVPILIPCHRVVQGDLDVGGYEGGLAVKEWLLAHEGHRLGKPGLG
T1 sequence (P16455 1-182 E30R/K32I/L33F/M60I/C62A/Y114E/Q115S/Q116H/A121V/K125A/A127T/R128A/G131N/G132T/M134L/R135D/C150Q/S151G/S152D/G153S/A154D/N157P/S159L limits assumed): T1 sequence (P16455 1-182 E30R/K32I/L33F/C62A/Q115S/Q116H/K125A/A127T/R128A/G131K/G132T/M134L/R135S/C150Q/S151G/S152D/G153L/A154D/N157G/S159E limits assumed) with M60I, Y114E, A121V, K131N, S135D, L153S, G157P, E159L
Description: Mammalian expression vectors for SNAP-eGFP and CLIP-eGFP were constructed from pSNAPf and pCLIPf (obtained from New England Biolabs of Singapore). eGFP was amplified using primers XhoI eGFP F and NotI eGFP R from pEGFP-NAD. The amplified DNA fragment was digested using XhoI/NotI and cloned into pSNAPf and pCLIPf for C-terminal fused eGFP-SNAP and eGFP-CLIP constructs respectively.
(§1) HEK293 cells were obtained from ATCC and grown in DMEM medium supplemented by 10% FCS and penicillin-streptomycin at 37° C. and 5% carbon dioxide. All experiments performed were carried out in 24 well plates seeded with 1×10^5 cells per well. Transfection was performed with Lipofectamine 2000 (Invitrogen™, Life Technologies of Singapore) as per manufacturer's instructions the day after seeding. Medium was changed the day after transfection.
The dimerizers (or Compounds 1 and 2) were dissolved to 1 mM in DMSO and diluted further with DMSO so all applications were done by adding 4 μl of DMSO with compound 1 dissolved in it to 400 μl of medium for each well. Compound 1 was added at the mentioned concentration two days after transfection and incubated for 3 to 6 hours before the cells were harvested with RIPA Lysis and Extraction buffer (from Thermo Fisher Scientific Inc of Illinois of the United States of America). Compound 2 was added at the mentioned concentration three days after transfection and incubated for a specified duration before the cells were harvested. […]
HEK293 cells were transfected with 250 ng of SNAP-eGFP and CLIP-eGFP. 3 days after transfection, increasing concentrations of 0.1 to 10 μM (0.1 μM, 0.4 μM, 1 μM, 4 μM, and 10 μM) of photocleavable dimerizer (Compound 2) were applied to the cells with fresh medium and the cells were harvested 6 hours after. […] The cleaved samples were equivalent volumes of uncleaved samples subjected to 365 nm illumination for 10 minutes.

[1] = system: SNAP-Gal4 and CLIP-AD2 (firefly luciferase under the control of 9 UAS elements); experiment: Luciferase up-regulation through dimerization of SNAP-Gal4 and CLIP-AD2 in transfected HEK293 cells (pGL4.35 reporter); format: cell-based; conditions: for luciferase expression after UV illumination: 20 μM, 96-well plate, 365 nm UV for 10 minutes just after application, harvested one day after, FIG. 8d; for luciferase production: HEK293, harvested 24 hours after treatment, FIG. 8a
Description: pGL4.35 (obtained from Promega of Singapore) contains firefly luciferase under the control of 9 UAS elements. SNAP was amplified from pSNAPf with SNAP-XhoI-C and SNAP NheI N; CLIP from pCLIPf with NheI NLC CLIP and SNAP-XhoI-C; Gal4 from pCMV-Gal4 with Gal4 HisTag BamHI and SNAP-Gal4 N; activation domains (AD2) from pHet-Act2-1 with SNAP-p65AD-HSF1AD N and p65 AD-HSF1AD HisTag BamHI. The individual PCR reactions were combined by SOEing PCR (Splicing by Overlap Extension) to make SNAP-Gal4 and CLIP-AD2 PCR products. These were then cloned into peGFP-C1 with the NheI and BamHI sites, removing eGFP in the process. Both constructs contained the nuclear localizing signal.
as §1
The dimerizers (or Compounds 1 and 2) were dissolved to 1 mM in DMSO and diluted further with DMSO so all applications were done by adding 4 μl of DMSO with compound 1 dissolved in it to 400 μl of medium for each well. Compound 1 was added at the mentioned concentration two days after transfection and incubated for 3 to 6 hours before the cells were harvested with RIPA Lysis and Extraction buffer (from Thermo Fisher Scientific Inc of Illinois of the United States of America). Compound 2 was added at the mentioned concentration three days after transfection and incubated for a specified duration before the cells were harvested.
HEK293 cells (in a 24-well plate) transfected with 400 ng pSNAP-Gal4 (Gal4 is a DNA-binding domain fused to SNAP), 200 ng pCLIP-AD2 (AD2 is a transcriptional activator fused to CLIP) and 100 ng pGL4.35 (GL4.35 is a luciferase reporter construct containing nine Gal4 binding motif for gene activation) were treated with stated amounts of either Compound 1 or 2 in 400 μl medium 1 day after transfection. Cells were harvested 24 hours after treatment and the levels of luciferase measured. FIG. 7 is a schematic diagram showing the up-regulation of luciferase.
Here, the cells were transfected as above and 8 μM of compound 2 was added to the cells one day after transfection. One day after, the cells were either illuminated with a fluorescent lamp or with a 365 nm UV lamp for 5 minutes. 0, 6, 24 or 48 hours later, the cells were harvested and the levels of luciferase measured.
The cells were transfected as above and 10 μM of compound 2 was added to the cells one day after transfection. One day after, the cells were illuminated with a 365 nm UV lamp for 10 minutes. […] Experiments were carried out in triplicates. The purpose of this experiment is to use a slightly higher amount of compound 2 and a longer UV irradiation time to optimize the linker cleavage.
HEK293 cells were transfected with the same ratio of plasmids in a 96-well plate and treated with 2% DMSO, 20 μM compound 1 or 20 μM compound 2 one day after transfection. Just after application, some of the cells were illuminated with 365 nm UV for 10 minutes. One day after, the cells were harvested.

| Compound | stability of the dimer in the cell (no change in dimerization) (SNAP-eGFP and CLIP-eGFP; HEK293, 5 μM, FIG. 6c) | time after application to maximal dimerization (SNAP-eGFP and CLIP-eGFP; HEK293, 5 μM, FIG. 6c) | time after application to near saturation of dimerization (SNAP-eGFP and CLIP-eGFP; HEK293, 5 μM, FIG. 6c) | dimerization of SNAP-eGFP and CLIP-eGFP (specificity) (SNAP-eGFP and CLIP-eGFP; HEK293, SNAP-eGFP and CLIP-eGFP together vs either alone, 0, 5 or 20 μM, harvested 6 hours after, FIG. 6a) | cell penetration (SNAP-eGFP and CLIP-eGFP; HEK293 cells in culture, applied with DMSO) | concentration at which dimerization occurs (SNAP-eGFP and CLIP-eGFP; HEK cells, 0.1 nM to 10,000 nM applied, harvested 3 hours after, FIG. 6b) | dose dependence of heterodimerization (SNAP-eGFP and CLIP-eGFP; HEK cells, 0.1 nM to 10,000 nM, harvested 3 hours after, FIG. 6b) | luciferase expression after UV illumination [1] | luciferase production [1] | reversal of dimerization by 365 nm illumination (SNAP-eGFP and CLIP-eGFP; 365 nm illumination for 10 minutes, FIG. 6d) | induction of dimerization of SNAP-eGFP and CLIP-eGFP (SNAP-eGFP and CLIP-eGFP; HEK293, 0.1 to 10 μM, harvested 6 hours after, FIG. 6d) | expression of luciferase, UV illumination compared to fluorescent lamp ([1]; 8 μM, 365 nm UV lamp for 5 minutes, harvested 0, 6, 24 or 48 hours later, FIG. 8b) | luciferase upregulation after exposure to UV illumination ([1]; FIG. 8b to FIG. 8d) |
| --- | --- | --- | --- | --- | --- | --- | --- | --- | --- | --- | --- | --- | --- |
| Nc1ccnc(OCc2ccc(CNC(=O)NCCOCCOCCOCCNC(=O)CCCC(=O)NCc3ccc(COc4nc(N)nc5[nH]cnc45)cc3)cc2)n1 [Compound 1] | ≥ 3 days | ≤ 24 h | 3 h | heterodimerization occurred specifically | could penetrate cells in culture | 400 nM | dose-dependent manner | did not | produced in a dose-dependent fashion | – | – | – | – |
| COc1cc(C(C)NC(=O)CCCC(=O)NCc2ccc(COc3nc(N)nc4[nH]cnc34)cc2)c([N+](=O)[O-])cc1OCCCC(=O)NCCOCCOCCOCCNC(=O)NCc1ccc(COc2nccc(N)n2)cc1 (stereo not drawn) [Compound 2] | – | – | – | – | – | – | – | decreased luciferase expression | luciferase was produced | partially reversing dimerization | could induce dimerization at lower concentrations than compound 1 | lower expression of luciferase | less effective |
